Measurements from patent US12622934B2, “Pharmaceutical composition for preventing or treating atopic disease containing Faecalibacterium prausnitzii strain” (ENTEROBIOME INC., priority 2020, dated 2026).
In brackets after ≈: the same amount, converted by molar mass.

Assays:
Th2/Th1 cytokines = test: Ratio of Th2/Th1 cytokines in serum; type: in vivo, mice
Procedure: (§1) The Faecalibacterium prausnitzii A2-165 strain and Faecalibacterium prausnitzii EB-FPDK11 live bacteria used in this experiment were prepared at a concentration of 1×10^8 CFU/150 μl PBS (25% glycerol, 0.05% cysteine/PBS).
To observe atopic dermatitis lesions, 6-week-old NC/Nga mice (weighed about 21 to 25 g, SLC, Inc., Japan) were purchased from Daehan Biolink Co., Ltd. (Chungbuk, Korea). Animal tests were carried out in accordance with the Animal use and Care Protocol of the Institutional Animal Care and Use Committee (IACUC). The animals were acclimated for one week, and then raised for 9 weeks at a constant temperature of 22° C. and a relative humidity of 50 to 60% with a 12-hr light/12-hr dark cycle. […]
(§2) At the end of the experiment, the mice were anesthetized with CO2, and blood was collected by cardiac puncture. […] The concentrations of IL-4, IL-12, IFN-γ and IL-6 cytokines were measured using an ELISA kit (Invitrogen, CA, USA), and the results of the measurement are shown in FIGS. 16 and 17.
From an immunological point of view, allergenic atopic dermatitis is a disease caused by an excessive imbalance between Th1 and Th2 immune responses. Thus, the cytokine concentrations measured as described above were expressed as the ratio of Th2/Th1 cytokines, and the results are shown in FIGS. 18 and 19.

NC/Nga mice [1] = test: Spleen weight; type: in vivo; settings: after 6 weeks oral treatment, compared to atopic dermatitis-induced group (DNCB)
Procedure: as §1
(§3) To observe atopic dermatitis lesions, 6-week-old NC/Nga mice (weighed about 21 to 25 g, SLC, Inc., Japan) were purchased from Daehan Biolink Co., Ltd. (Chungbuk, Korea). Animal tests were carried out in accordance with the Animal use and Care Protocol of the Institutional Animal Care and Use Committee (IACUC). The animals were acclimated for one week, and then raised for 9 weeks at a constant temperature of 22° C. and a relative humidity of 50 to 60% with a 12-hr light/12-hr dark cycle.
(§4) The backs of 6-week-old NC/Nga mice were shaved clean, and then left to stand for 24 hours so that fine wounds of the skin were healed. […]
Thus, the weight of the spleen was measured to observe the effect of the composition for preventing atopic dermatitis on the immune organs of NC/Nga mice with atopic dermatitis induced by DNCB. […] The collected spleen tissue was washed with physiological saline and then dried, and the weights thereof were measured using a microbalance and the sizes thereof were visually observed.

IL-6 = test: Serum cytokine concentration (ELISA), IL-6; type: in vivo, mice; settings: mouse blood, compared to atopic dermatitis-induced group (DNCB)
Procedure: as §1, §3, §4
After induction of atopic dermatitis, the concentrations of cytokines related to Th1 and Th2 were measured to examine the immune response resulting from administration of the Faecalibacterium prausnitzii EB-FPDK11 strain of the present invention. […]
as §2

NC/Nga mice [2] = test: Scratching frequency; type: in vivo; settings: scratching for 10 minutes, day before end, compared to atopic dermatitis-induced group
Procedure: as §1, §3
(§5) The backs of 6-week-old NC/Nga mice were shaved clean, and then left to stand for 24 hours so that fine wounds of the skin were healed. 1% 2,4-dinitrochlorobenzene (DNCB) solution (Sigma-Aldrich Korea) was applied to the back of each mouse twice a week for 3 weeks to induce an immune response, and then 0.5% DNCB solution was applied twice a week to induce contact dermatitis. […]
The day before the end of the experiment, the frequency of scratching the affected area due to itching was measured. For measurement of the frequency of scratching, each mouse was acclimated for 10 minutes, and then the frequency of scratching for 10 minutes was measured using a counter.

NC/Nga mice [3] = test: Ear edema caused by atopic dermatitis (thickness gauge); type: in vivo; settings: at 6 weeks; normal group 0.55 mm, DNCB group 1.50 mm
Procedure: as §1, §3, §5
After completion of the experiment, the mice were sacrificed by anesthetizing with CO2, and then the degree of edema of both ears was measured by the velocity transformation technique using a thickness gauge (Digimatic thickness gauge, 547-301, Mitutoyo, Japan).

IgE = test: Serum IgE concentration (ELISA); type: in vivo, mice; settings: end of experiment, compared to DNCB group (1545.08 ng/ml)
Procedure: as §1, §3, §5
At the end of the experiment, each of the mice was anesthetized with CO2 and blood was collected by cardiac puncture. The collected blood was centrifuged at 10,000 rpm for 5 minutes to separate the serum, and the serum IgE concentration was measured. […]

[4] = system: Faecalibacterium prausnitzii A2-165; test: MIC by CLSI broth microdilution, type strain; type: cell-based; design: MIC: unit not given beside the values; settings: for MIC breakpoint class: test strain A2-165, breakpoints per antibiotic in c1-c3
[5] = system: Faecalibacterium prausnitzii EB-FPDK11; test: MIC by CLSI broth microdilution, isolated strain; type: cell-based; design: MIC: unit not given beside the values; settings: for resistance or sensitivity of the EB-FPDK11 strain to the antibiotic: Table 5; for MIC breakpoint class: test strain EB-FPDK11, breakpoints per antibiotic in c1-c3
[6] = system: Bacteroides thetiotaomicron ATCC 29741; test: MIC by CLSI broth microdilution, QC strain; type: cell-based; settings: ATCC29741

Compound: C[C@@H]1C[C@H]2[C@@H]3CCC4=CC(=O)C=C[C@]4(C)[C@@]3(F)[C@@H](O)C[C@]2(C)[C@@]1(O)C(=O)CO [dexamethasone]
- decrease in IL-4/IL-12 ratio (Th2/Th1 cytokines; compared to atopic dermatitis-induced group): 23.7%
- decrease in ratio of IL-6/IL-12 (Th2/Th1 cytokines; compared to atopic dermatitis-induced group (DNCB)): 35.8%
- decrease in spleen weight (NC/Nga mice [1]): 23.26%
- decrease in IL-6 concentration (IL-6): 35.5%
- decrease in frequency of scratching (NC/Nga mice [2]): about 59.4%
- ear edema (NC/Nga mice [3]): 1.00 mm
- decrease in serum IgE concentration (IgE): 40.70%

Compound: CO/N=C(\C(=O)N[C@@H]1C(=O)N2C(C(=O)O)=CCS[C@H]12)c1csc(N)n1 [CTZ, ceftizoxime]
- MIC breakpoint class [4]: (I)
- resistance or sensitivity of the EB-FPDK11 strain to the antibiotic [5]: resistance
- MIC breakpoint class [5]: (R)

Compound: COc1c(N2C[C@@H]3CCCN[C@@H]3C2)c(F)cc2c(=O)c(C(=O)O)cn(C3CC3)c12 [MXF, moxifloxacin]
- MIC breakpoint class [4]: (R)
- MIC breakpoint class [5]: (R)

Compound: C[C@@H](O)[C@H]1C(=O)N2C(C(=O)O)=C(S[C@@H]3CN[C@H](C(=O)N(C)C)C3)[C@H](C)[C@H]12 [MEM, meropenem]
- MIC breakpoint class [4]: (R)
- MIC [6]: 0.5 µg/mL (≈ 1.3 µM)
- resistance or sensitivity of the EB-FPDK11 strain to the antibiotic [5]: resistance
- MIC breakpoint class [5]: (R)

Compound: O=C(N[C@H](CO)[C@H](O)c1ccc([N+](=O)[O-])cc1)C(Cl)Cl [CHL, chloramphenicol]
- MIC breakpoint class [4]: (R)
- resistance or sensitivity of the EB-FPDK11 strain to the antibiotic [5]: sensitivity
- MIC breakpoint class [5]: (S)

Compound: Piperacillin-tazobactam [PTZ]
- MIC ([4]; test strain A2-165, broth microdilution): ≤256/4
- MIC breakpoint class [4]: (R)
- resistance or sensitivity of the EB-FPDK11 strain to the antibiotic [5]: resistance
- MIC ([5]; test strain EB-FPDK11, broth microdilution): ≤256/4
- MIC breakpoint class [5]: (R)

Compound: CCC[C@@H]1C[C@@H](C(=O)N[C@@H]([C@H]2O[C@H](SC)[C@H](O)[C@@H](O)[C@H]2O)[C@H](C)Cl)N(C)C1 [CLI, clindamycin]
- MIC breakpoint class [4]: (S)
- MIC breakpoint class [5]: (S)

Compound: Cc1ncc([N+](=O)[O-])n1CCO [MTZ, metronidazole]
- MIC breakpoint class [4]: (S)
- resistance or sensitivity of the EB-FPDK11 strain to the antibiotic [5]: sensitivity
- MIC breakpoint class [5]: (S)
